This data set in a line: Physical properties and gas carrying capacity of perfluoro-tert-butylcyclohexane. The class given is physicochemical.

Consider `FC(F)(F)C(C(F)(F)F)(C(F)(F)F)C1(F)C(F)(F)C(F)(F)C(F)(F)C(F)(F)C1(F)F` [perfluoro-tert-butylcyclohexane], for which the CO2 carried was 196 ml of CO2 per 100 ml of PFC, the lipophilicity entry was “non-lipophilic”, the oxygen carried result is on record as “about 43 mL of oxygen per 100 ml of PFC” and the water solubility entry is given as “non-water soluble”. Also, the “Vapor Pressure” value (@ 25° C.) amounted to 3.8 mmHg. Besides, the “Vapor Pressure” value (@ 37° C.) was 4.4 mmHg.
